Legend:
HCT 116 GFP+ cells = experiment: single-color GFP+ immune cell co-culture
Protocol: Single-color immune cell co-culture experiments. A total of 5000 HT-29 GFP+ or HCT 116 GFP+ cells were plated per well in a clear-bottom, black-walled 96-well tissue culture plate and were allowed to adhere overnight. Cells were subsequently treated with DMSO, 5 μM elraglusib, or 5000 TALL-104 or NK-92 cells (for an effector-to-tumor ratio of 1:1) for forty-eight hours. Nine images were taken per well at 10× magnification using a Molecular Devices ImageXpress® Confocal HT.ai High-Content Imaging System and quantified for the number of GFP+ objects using the MetaXpress (RRID: SCR_016654) software (Molecular Devices, San Jose, CA, USA). 40× images were also taken at twenty-four hours for representative images of cellular morphology changes.
To determine if pyroptosis-mediated immune cell activity played a role in the co-culture results, the inventors examined higher-power co-culture images for evidence of pyroptosis.

SW480 = experiment: multicolor co-culture of SW480 and TALL-104 T cells; assay type: cell-based, human
Excerpt: Multicolor immune cell co-culture experiments.
Elraglusib sensitizes tumor cells to immune-mediated cytotoxicity. […] FIG. 8A. TALL-104 cells are a human leukemic T cell line.
FIG. 1A. […] FIG. 1B. […] FIG. 1C. […] FIG. 1D. […] FIG. 1E. […] FIG. 1F.

[1] = test system: panel of human colorectal cell lines; experiment: Luminex 200 analysis of tumor cell culture supernatants (Example 1); assay type: cell-based
Protocol: (§1) Human cytokine profiling. Human cell line culture supernatants were analyzed using an R&D systems Human Premixed Multi-Analyte Kit (R&D Systems, Inc., Minneapolis, MN, USA) and a Luminex 200 (RRID: SCR_018025) Instrument (LX200-XPON-RUO, Luminex Corporation, Austin, TX, USA) according to the manufacturer's instructions. Sample levels of TNF-α, 4-1BB/TNFRSF9/CD137, IL-8/CXCL8, Ferritin, IFN-β, IL-10, CCL2/JE/MCP-1, VEGF, CXCL13/BLC/BCA-1, IFN-γ, CCL20/MIP-3 α, CCL3/MIP-1 α, CCL22/MDC, CCL4/MIP-1 β, Fas Ligand/TNFSF6, IL-17/1L-17A, IL-2, BAFF/BLyS/TNFSF13B, GM-CSF, CXCLS/ENA-78, TRANCE/TNFSF11/RANK L, CXCL9/MIG, G-CSF, IFN-γ R1/CD119, VEGFR3/Flt-4, C-Reactive Protein/CRP, CXCL11/I-TAC, IL-21, CXCL14/BRAK, IL-6, Fas/TNFRSF6/CD95, TRAIL R3/TNFRSF10C, IL-4, CCL5/RANTES, PD-L1/137-H1, CCL7/MCP-3/MARC, Chitinase 3-like 1, CXCL10/IP-10/CRG-2, IL-1 μ/IL-1F2, IL-7, Prolactin, CCL8/MCP-2, TRAIL R2/TNFRSF10B, M-CSF, IL-15, Granzyme B, IFN-α, TREM-1, IL-12/1L-23 p40, TRAIL/TNFSF10, CCL11/Eotaxin, and 1L-18/1L-1F4. Quantitative analysis with 6 standards and a minimum of 50 counts per bead region was used with the Luminex to generate analyte values reported as picograms/milliliter (pg/mL). Sample concentrations less than the lower limit of detection for each particular analyte were recoded as the lower limit value divided by 10. Sample concentrations above the upper limit of detection for a particular analyte were recoded as the upper limit of detection.
A panel of human colorectal cell lines was chosen to provide a varied mutational background (TP53, KRAS, BRAF, TRK, APC, PIK3CA). Cells were treated with elraglusib at doses up to 50 μM for seventy-two hours to determine IC10, IC30, IC50, and IC70. Cytokine, chemokine, and growth factor levels were analyzed in the tumor cell culture supernatants after treatment at IC10, IC30, IC50, and IC70 for forty-eight hours using a Luminex 200 multiplexing instrument. Co-culture experiments were conducted with GFP+ SW480 colorectal cancer cells and either NK-92 natural killer cells or TALL-104 T cells at various effector/target ratios in a 48-well plate, in the presence or absence of elraglusib.

TALL-104 = experiment: Luminex cytokine profiling of cell culture supernatant; assay type: cell-based, human
Protocol: (§2) Collection of cell culture supernatants used in cytokine measurements. Cells were plated at 3.5×10^4 cells in a 48-well plate (Thermo Fisher Scientific, Waltham, MA, USA) in complete medium and incubated at 37° C. with 5% CO2. At twenty-four hours after plating, almost all the tumor cells were adherent to the bottom of the flask and the complete medium was replaced with the drug-containing medium. Subsequently, the culture supernatants were collected after forty-eight hours of incubation and were frozen at −80° C. until the measurement of cytokines was performed. On the day of analysis, samples were thawed and centrifuged to remove cellular debris.
as §1
(§3) Saos-2 osteosarcoma and 93T449 liposarcoma cell lines were pretreated at IC50 with elraglusib. The cells were harvested for Western blot analysis after 48 hours of treatment. Both cancer cell lines as well as TALL-104 T-cells and NK-92 NK cells were treated with 0.5 μM elraglusib for twenty-four hours and harvested for Luminex cytokine profiling.
(§4) Because the previously observed non-canonical NF-κB pathway activation enhances the expression of immune cell chemotactic chemokines and cytokines, the inventors determine how elraglusib treatment impacts the immune cell secretome. TALL-104 and NK-92 cells were treated with 1 μM elraglusib for forty-eight hours before cell culture supernatant was collected for cytokine profile analysis.

NK-92 = experiment: as above; assay type: cell-based, human
Protocol: as §2, §1, §3, §4

Cn1cc(C2=C(c3coc4ccc(F)cc34)C(=O)NC2=O)c2cc3c(cc21)OCO3 [elraglusib]
tumor cell death (HCT 116 GFP+ cells; 5 μM elraglusib and NK-92 vs drug-only or immune-cell-only): increased tumor cell death
GFP+ cells per low-powered field (HCT 116 GFP+ cells; 5 μM elraglusib only vs DMSO only, forty-eight hours): significant decrease
number of GFP+ cells per field (HCT 116 GFP+ cells; TALL-104 and 5 μM elraglusib vs TALL-104): significant decrease
pyroptotic events (HCT 116 GFP+ cells; co-culture with TALL-104, 5 μM elraglusib): significant increase
dead cells out of total cells (SW480; co-culture with TALL-104, 5 μM, 24 hours, E:T 1:1, normalized, without drug approximately 45%): 60%
dead cells out of total cells (SW480; co-culture with TALL-104, 10 μM, 24 hours, E:T 1:1, normalized, without drug approximately 45%): 65%
dead cells out of total cells (SW480; tumor cells pre-treated 5 μM for twenty-four hours, then co-cultured with TALL-104): 65%
macrophage colony-stimulating factor (M-CSF) [1]: decrease
VEGF in supernatant ([1]; IC10, IC30, IC50, IC70 for forty-eight hours): decreased
Overall cytokine levels ([1]; in response to increasing doses): decreasing trend
CXCL14 (BRAK) in supernatant ([1]; with increasing doses): increase
CXCL11 (TALL-104; 0.5 μM, twenty-four hours): increase
IL-18 (TALL-104; 0.5 μM, twenty-four hours): increased level
IFN-γ concentration (TALL-104; 1 μM, forty-eight hours): increases
TRAIL concentration (TALL-104; 1 μM, forty-eight hours): increases
granzyme B concentration (TALL-104; 1 μM, forty-eight hours): increases
IFN-γ in cell culture supernatants (TALL-104; twenty-four hours): significant increase
IL-8 chemokine (NK-92; 0.5 μM, twenty-four hours): increase
soluble TRAIL (TRAIL/TNFSF10) (NK-92; 0.5 μM, twenty-four hours): increase
IFN-γ concentration (NK-92; 1 μM, forty-eight hours): increases
TRAIL concentration (NK-92; 1 μM, forty-eight hours): increases
secreted granzyme B concentration (NK-92; 1 μM, forty-eight hours): decreases
IFN-γ in cell culture supernatants (NK-92; twenty-four hours, effect smaller than in TALL-104): significant increase

Reference: US20240041830A1, “CIRCULATING BIOMARKERS OF RESPONSE TO PD-1/PD-L1 BLOCKADE AND GSK-3 INHIBITION” (Brown University, priority 2022, published 2024)
